± gives the expanded uncertainty stated by the source.
Test: xn = mol fraction of the nth substance listed
Conditions: 100 kPa, Liquid; for viscosity: Falling or rolling sphere viscometry; for mass density: Vibrating tube method

CC12CC3CC(C1)CC(C)(C3)C2 [1,3-dimethyladamantane] + OC1CCCC1
Conditions | mass density [kg/m3] | viscosity [mPa·s]
293.15 K, x2 = 0.0963 | 903.9 ± 0.55 | 3.868 ± 0.082
293.15 K, x2 = 0.1973 | 906.97 ± 0.55 | 4.123 ± 0.088
293.15 K, x2 = 0.3101 | 910.8 ± 0.55 | 4.531 ± 0.096
293.15 K, x2 = 0.4019 | 914.34 ± 0.55 | 4.967 ± 0.11
293.15 K, x2 = 0.4995 | 918.49 ± 0.55 | 5.61 ± 0.12
293.15 K, x2 = 0.5999 | 923.27 ± 0.56 | 6.396 ± 0.14
293.15 K, x2 = 0.6997 | 928.58 ± 0.56 | 7.57 ± 0.16
293.15 K, x2 = 0.7976 | 934.17 ± 0.56 | 8.863 ± 0.19
293.15 K, x2 = 0.9003 | 940.6 ± 0.57 | 10.32 ± 0.22
298.15 K, x2 = 0.0963 | 900.22 ± 0.54 | 3.42 ± 0.073
298.15 K, x2 = 0.1973 | 903.23 ± 0.55 | 3.627 ± 0.077
298.15 K, x2 = 0.3101 | 907 ± 0.55 | 3.953 ± 0.084
298.15 K, x2 = 0.4019 | 910.49 ± 0.55 | 4.3 ± 0.091
298.15 K, x2 = 0.4995 | 914.58 ± 0.55 | 4.805 ± 0.1
298.15 K, x2 = 0.5999 | 919.31 ± 0.56 | 5.428 ± 0.12
298.15 K, x2 = 0.6997 | 924.57 ± 0.56 | 6.304 ± 0.13
298.15 K, x2 = 0.7976 | 930.15 ± 0.56 | 7.3 ± 0.15
298.15 K, x2 = 0.9003 | 936.59 ± 0.57 | 8.417 ± 0.18
303.15 K, x2 = 0.0963 | 896.53 ± 0.54 | 3.048 ± 0.065
303.15 K, x2 = 0.1973 | 899.47 ± 0.54 | 3.212 ± 0.068
303.15 K, x2 = 0.3101 | 903.18 ± 0.55 | 3.477 ± 0.074
303.15 K, x2 = 0.4019 | 906.62 ± 0.55 | 3.756 ± 0.08
303.15 K, x2 = 0.4995 | 910.65 ± 0.55 | 4.154 ± 0.088
303.15 K, x2 = 0.5999 | 915.31 ± 0.55 | 4.643 ± 0.099
303.15 K, x2 = 0.6997 | 920.53 ± 0.56 | 5.319 ± 0.11
303.15 K, x2 = 0.7976 | 926.1 ± 0.56 | 6.092 ± 0.13
303.15 K, x2 = 0.9003 | 932.59 ± 0.56 | 6.972 ± 0.15
308.15 K, x2 = 0.0963 | 892.84 ± 0.54 | 2.729 ± 0.058
308.15 K, x2 = 0.1973 | 895.7 ± 0.54 | 2.863 ± 0.061
308.15 K, x2 = 0.3101 | 899.33 ± 0.54 | 3.076 ± 0.065
308.15 K, x2 = 0.4019 | 902.72 ± 0.55 | 3.302 ± 0.07
308.15 K, x2 = 0.4995 | 906.7 ± 0.55 | 3.618 ± 0.077
308.15 K, x2 = 0.5999 | 911.29 ± 0.55 | 4.007 ± 0.085
308.15 K, x2 = 0.6997 | 916.45 ± 0.55 | 4.532 ± 0.096
308.15 K, x2 = 0.7976 | 922.01 ± 0.56 | 5.135 ± 0.11
308.15 K, x2 = 0.9003 | 928.43 ± 0.56 | 5.829 ± 0.12
313.15 K, x2 = 0.0963 | 889.12 ± 0.54 | 2.457 ± 0.052
313.15 K, x2 = 0.1973 | 891.91 ± 0.54 | 2.565 ± 0.055
313.15 K, x2 = 0.3101 | 895.47 ± 0.54 | 2.736 ± 0.058
313.15 K, x2 = 0.4019 | 898.8 ± 0.54 | 2.919 ± 0.062
313.15 K, x2 = 0.4995 | 902.71 ± 0.55 | 3.174 ± 0.067
313.15 K, x2 = 0.5999 | 907.24 ± 0.55 | 3.484 ± 0.074
313.15 K, x2 = 0.6997 | 912.35 ± 0.55 | 3.891 ± 0.083
313.15 K, x2 = 0.7976 | 917.88 ± 0.55 | 4.365 ± 0.093
313.15 K, x2 = 0.9003 | 924.29 ± 0.56 | 4.915 ± 0.1
318.15 K, x2 = 0.0963 | 885.4 ± 0.54 | 2.222 ± 0.047
318.15 K, x2 = 0.1973 | 888.1 ± 0.54 | 2.307 ± 0.049
318.15 K, x2 = 0.3101 | 891.59 ± 0.54 | 2.447 ± 0.052
318.15 K, x2 = 0.4019 | 894.85 ± 0.54 | 2.595 ± 0.055
318.15 K, x2 = 0.4995 | 898.7 ± 0.54 | 2.801 ± 0.06
318.15 K, x2 = 0.5999 | 903.16 ± 0.55 | 3.048 ± 0.065
318.15 K, x2 = 0.6997 | 908.21 ± 0.55 | 3.368 ± 0.072
318.15 K, x2 = 0.7976 | 913.7 ± 0.55 | 3.742 ± 0.079
318.15 K, x2 = 0.9003 | 920.09 ± 0.56 | 4.179 ± 0.089
323.15 K, x2 = 0.0963 | 881.66 ± 0.53 | 2.018 ± 0.043
323.15 K, x2 = 0.1973 | 884.27 ± 0.54 | 2.083 ± 0.044
323.15 K, x2 = 0.3101 | 887.67 ± 0.54 | 2.199 ± 0.047
323.15 K, x2 = 0.4019 | 890.88 ± 0.54 | 2.32 ± 0.049
323.15 K, x2 = 0.4995 | 894.66 ± 0.54 | 2.485 ± 0.053
323.15 K, x2 = 0.5999 | 899.04 ± 0.54 | 2.681 ± 0.057
323.15 K, x2 = 0.6997 | 904.03 ± 0.55 | 2.935 ± 0.062
323.15 K, x2 = 0.7976 | 909.47 ± 0.55 | 3.234 ± 0.069
323.15 K, x2 = 0.9003 | 915.84 ± 0.55 | 3.582 ± 0.076
328.15 K, x2 = 0.0963 | 877.91 ± 0.53 | 1.841 ± 0.039
328.15 K, x2 = 0.1973 | 880.42 ± 0.53 | 1.893 ± 0.04
328.15 K, x2 = 0.3101 | 883.74 ± 0.54 | 1.984 ± 0.042
328.15 K, x2 = 0.4019 | 886.87 ± 0.54 | 2.082 ± 0.044
328.15 K, x2 = 0.4995 | 890.58 ± 0.54 | 2.217 ± 0.047
328.15 K, x2 = 0.5999 | 894.89 ± 0.54 | 2.376 ± 0.05
328.15 K, x2 = 0.6997 | 899.81 ± 0.54 | 2.576 ± 0.055
328.15 K, x2 = 0.7976 | 905.2 ± 0.55 | 2.814 ± 0.06
328.15 K, x2 = 0.9003 | 911.54 ± 0.55 | 3.093 ± 0.066
333.15 K, x2 = 0.0963 | 874.14 ± 0.53 | 1.686 ± 0.036
333.15 K, x2 = 0.1973 | 876.55 ± 0.53 | 1.724 ± 0.037
333.15 K, x2 = 0.3101 | 879.77 ± 0.53 | 1.797 ± 0.038
333.15 K, x2 = 0.4019 | 882.83 ± 0.54 | 1.877 ± 0.04
333.15 K, x2 = 0.4995 | 886.46 ± 0.54 | 1.987 ± 0.042
333.15 K, x2 = 0.5999 | 890.7 ± 0.54 | 2.116 ± 0.045
333.15 K, x2 = 0.6997 | 895.55 ± 0.54 | 2.275 ± 0.048
333.15 K, x2 = 0.7976 | 900.88 ± 0.55 | 2.469 ± 0.052
333.15 K, x2 = 0.9003 | 907.18 ± 0.55 | 2.689 ± 0.057
